Test results: patent publication US4260761A, “Intermediates for the preparation of octahydro-1H-benzo[4,5]furo[3,2,-e]-isoquinoline analgesic and narcotic antagonistic compounds” (priority 1980, dated 1981)

Legend:
Straub tail = Straub tail test (narcotic agonist effect), oral, mice; assay type: in vivo, mice (CF1 S female); conditions: tail erected 90° or more within 24 minutes
Procedure: Narcotic analgesics produce in mice an erection and arching of the tail (90° or more) which is referable to spinal cord stimulation. This Straub tail reaction is not produced by other analgesics, including the narcotic antagonists.
The method used was modified from Shemano, I., and Wendel, H., Tox. Appl. Pharm., 6, 334-9 (1964). CF1 S female mice (18-21 g), 10-20 mice per dose, were intubated with log scaled doses of analgesic in 1% aqueous methylcellulose. A positive Straub tail response was recorded if a tail was erected 90° or more for 5 seconds at any time within 24 minutes after dosing. A quantal Straub tail ED50 was calculated by the moving average method [Thompson, W. R., Bact. Rev., 11, 115-145 (1947)].
(§1) Most of the compounds were analgetic in the mouse antiphenylquinone test system and only a few caused Straub tail. Most also were antagonists in the mouse anti-Straub tail test.
(§2) On the other hand, the very high Straub tail ED50 's indicate that most of the compounds of the invention have very low likelihood of being addictive. […] Thus, the compounds of the invention are characterized by rapid onset of action, high oral potency and the ability to alleviate deepseated pain. Furthermore, abuse liability for most of the compounds should be extremely low or non-existent.

[1] = tested on: phenylquinone-induced writhing; experiment: Phenylquinone writhing (PQW) analgesic test, oral, mice; assay type: in vivo, mice (female white); conditions: for EFFECT ED50, Oral Anti-PQW: mice, phenylquinone writhing
Procedure: A standard procedure for detecting and comparing the analgesic activity of compounds in this series for which there is good correlation with human efficacy is the standard phenylquinone writhing test modified from Siegmund, et al., Proc. Soc. Exp. Biol. Med., 95, 729 (1957). A test compound suspended in 1% methocel® was given orally to fasted (17-21 hours) female white mice, 5-20 animals per double blind test. Aqueous (0.01% phenyl-p-benzoquinone) phenylquinone was injected intraperitoneally at 24 minutes later using 0.20 ml per mouse. […] The effective analgesic dose for 50% of the mice (ED50) was calculated by the moving average method of Thompson, W. R., Bact. Rev., 11, 115-145 (1947).
as §1, §2

[2] = tested on: morphine-induced Straub tail; experiment: Anti-Straub tail test (antagonism of morphine-induced Straub tail), mice; assay type: in vivo, mice (female CF1 S)
Procedure: This property is the basis of a mouse test for narcotic antagonists.
Female CF1 S mice (fasted 17-21 hrs.), 5 per dose, were injected orally or subcutaneously with test drug at 0.67, 2, 6, 18, 54 and 162 mg/kg or other appropriate doses in 0.20 ml 1% Methocel® per mouse. Five minutes later, 30 mg/kg of morphine sulfate in 0.20 ml 1% Methocel® per mouse was given intraperitoneally starting ten minutes later, the mice were observed continuously for 5 minutes for evidence of Straub tail. Prevention of a 90° Straub tail during this observation period was taken as indication of narcotic antagonist ability.
as §1, §2

opiate analgesics = conditions: background; cited from earlier work
[3] = background; cited from earlier work
[4] = tested on: morphine-induced Straub tail; conditions: mice; Blumberg et al. 1968; cited from earlier work
[5] = Lasagna and Beecher 1954; cited from earlier work

CN1CC[C@]23c4cccc(O)c4O[C@H]2CCC[C@H]3C1 (relative stereo) [Example 3, 3-Methyl-2,3,4,4aα,5,6,7,7aα-octahydro-1H-benzo[4,5]furo[3,2-e]isoquinolin-9-ol]
ED50 (Straub tail; Mus musculus, 0.4 h): 135 mg/kg

Oc1cccc2c1O[C@H]1CCC[C@H]3CN(CC4CC4)CC[C@@]231 (relative stereo) [Example 5, 3-Cyclopropylmethyl-2,3,4,4aα,5,6,7,7aα-octahydro-1H-benzo[4,5]furo[3,2-e]isoquinolin-9-ol]
analgesic potency relative to morphine ([1]; mouse analgesia data): several times greater potency than morphine

COc1cccc2c1O[C@H]1CCC[C@H]3CN(Cc4ccccc4)CC[C@@]231 (relative stereo) [Example 10, 3-Benzyl-9-methoxy-2,3,4,4aα,5,6,7,7aα-octahydro-1H-benzo[4,5]furo[3,2-e]isoquinoline]
narcotic antagonism ([2]; mouse anti-Straub tail test): pure narcotic antagonists

COc1cccc2c1O[C@H]1CCC[C@H]3CN(CC#N)CC[C@@]231 (relative stereo) [Example 20, 9-Methoxy-2,3,4,4aα,5,6,7,7aα-octahydro-1H-benzo[4,5]furo[3,2-e]isoquinoline-3-acetonitrile]
ED50 ([2]; Mus musculus, sc, subcutaneous, mice, vs morphine sulfate 30 mg/kg i.p., read-out: EFFECT ED50, Anti-Straub Tail (s.c.)): 27 mg/kg

CN1CCC23c4cccc(O)c4OC2CCCC3C1 (single isomer, unassigned) [Example 3 (+)isomer]
EFFECT ED50, Oral Anti-PQW ([1]; listed as 3 (+)isomer): 61 | EFFECT ED50, Oral Straub-Tail (Straub tail): > 135 | EFFECT ED50, Anti-Straub Tail (s.c.) ([2]; subcutaneous, mice, vs morphine sulfate 30 mg/kg i.p., listed as 3 (+)isomer): 3.3

CN1CCC23c4cccc(O)c4OC2CCCC3C1 (single isomer, unassigned) [Example 3 (-) isomer]
EFFECT ED50, Oral Anti-PQW ([1]; listed as 3 (-) isomer): 2.1 | EFFECT ED50, Oral Straub-Tail (Straub tail): > 135 | EFFECT ED50, Anti-Straub Tail (s.c.) ([2]; subcutaneous, mice, vs morphine sulfate 30 mg/kg i.p., listed as 3 (-) isomer): 0.14

CN1CC[C@]23c4c5ccc(O)c4O[C@H]2[C@@H](O)C=C[C@H]3[C@H]1C5 [Morphine]
EFFECT ED50, Oral Anti-PQW [1]: 3.0 | EFFECT ED50, Oral Straub-Tail (Straub tail): 48

C=CCN1CC[C@]23CCCC[C@H]2[C@H]1Cc1ccc(O)cc13 [levallorphan]
antagonism of opiate analgesics (opiate analgesics): effectively antagonize overdoses of the opiate analgesics | intrinsic analgesic activity [3]: some analgesic effects by themselves

C=CCN1CC[C@]23c4c5ccc(O)c4O[C@H]2[C@@H](O)C=C[C@H]3[C@H]1C5 [nalorphine]
prevention of morphine-induced Straub tail [4]: prevent the induction of Straub tail in mice | antagonism of opiate analgesics (opiate analgesics): effectively antagonize overdoses of the opiate analgesics | intrinsic analgesic activity [3]: some analgesic effects by themselves | analgetic properties in man [5]: also has analgetic properties in man

C=CCN1CC[C@]23c4c5ccc(O)c4O[C@H]2C(=O)CC[C@@]3(O)[C@H]1C5 [naloxone]
prevention of morphine-induced Straub tail [4]: prevent the induction of Straub tail in mice | antagonism of emetic effect of meperidine (opiate analgesics): antagonizes the emetic effect of meperidine | antagonism of opiate analgesics (opiate analgesics): effectively antagonize overdoses of the opiate analgesics
